Converted amounts (≈) assume the structure as drawn. Read-outs that look alike come from different tables or passages of the source.

Holding throughout (assay): microbe, parasite or virus in culture
For test [1], the system named is Candida albicans C. a.^f (Table 4). More on the design: species or system yeast; tube dilution MIC in YEPD (± 1.2 M sorbitol), complete growth inhibition by turbidity. The conditions noted are these: 48 h, read-out: MIC. The procedure:
(§1) Standard YEPD (Yeast Extract, Peptone, Dextrose) ([Sherman, 1990]), YEPD+S (YEPD with 1.2M sorbitol), YES (Yeast Extract, Dextrose and Supplements of Adenine, Histidine, Leucine, Uracil and Lysine) ([Alfa et al., 1993]) and YES+S (YES with 1.2 M sorbitol) ([Ribas et al., 1991]; [Ishiguro et al., 1997]), media were used for determination of MIC values of the tested compounds. A stock solution of 10 mg/ml of each tested compounds was prepared in DMSO and serial dilutions in DMSO were prepared. The final concentration of DMSO was 2% in the YEPD medium. […] The serial dilutions of compounds were dispensed into test tubes with 1 ml of YEPD or YEPD+S to make final concentrations of 200, 100, 50, 25, 12.5, 6.26, 3.125, 1.6, 0.8 and 0.4 μg/ml. The tested yeast strains were previously grown in YEPD, YEPD+S, YES or YES+S agar plates at 30°C for 48 h. For inoculation of YEPD or YEPD+S macro test tubes a suspension of tested fungus was produced with 10^5 cfu/ml (cfu - colony forming unit). 10 μl of suspension was used for inoculation of each tube. After 48 h incubation at 30°C the tubes were checked. The MIC value is the lowest concentration of the tested compound that could inhibit the fungal growth and the medium remained clear. From each tube 10 μl culture was plated on YEPD agar medium to check the contamination. The MIC tests were carried out in three parallels. Micro-culture assays of large numbers of samples were analyzed as described) ([Martins et al., 2011]). Essentially early log-phase cells were grown in YEPD, YEPD+S, YES or YES+S (1.2 M sorbitol) medium at 30°C, and diluted to cell density of 4 X 10^6 cells/ml in YEPD, YEPD+S, YES or YES+S medium and aliquots of 100 μl were dispensed into each small test tube (3 ml test tube size). Then, another 100 μl of YEPD, YEPD+S, YES or YES+S with the corresponding dilution of each compound at 2X concentration (4% DMSO) was added. The final volume was 200 μl, with the cells diluted to of 2 X 10^6 cells/ml and each compound diluted to 1X final concentration, containing increasing concentrations of antifungal (0, 1, 2, 5, 10, 20, 50, 100 and 200 μg/ml) or an equivalent volume of solvent (2% DMSO). The cells were grown at 30°C in an orbital roller and turbidity was analyzed after 24 and 48 h of incubation. The MIC was determined as the minimal concentration of tested compound that produced complete cell growth inhibition and kept the medium clear. The MIC values were calculated from at least three independent experiments.

The subject of test [2] is Candida albicans C. a.^g (Table 4). Also noted: species or system yeast; tube dilution MIC in YEPD (± 1.2 M sorbitol), complete growth inhibition by turbidity. The settings on record: 48 h, read-out: MIC. The procedure:
as §1

Test [3] deals with Candida albicans C. a.^h (Table 4). Also noted: species or system yeast; tube dilution MIC in YEPD (± 1.2 M sorbitol), complete growth inhibition by turbidity. The settings on record: 48 h, read-out: MIC. The procedure:
as §1

Test [4] has as its system T1, Saccharomyces cerevisiae S. c.^d (wild-type CVX12-3A).
T1 construct: CVX12-3A
More on the design: species or system yeast; tube dilution MIC in YEPD (± 1.2 M sorbitol), complete growth inhibition by turbidity. The settings on record: 48 h, read-out: MIC. The procedure:
as §1

Test [5] concerns T2, Schizosaccharomyces pombe S. p.^a (wild-type 972 h-).
T2 construct: 972 h-
Also noted: species or system yeast; tube dilution MIC in YEPD (± 1.2 M sorbitol), complete growth inhibition by turbidity. The settings on record: 48 h, read-out: MIC. The procedure: as §1

The test system of test [6] is Candida albicans C. a.^f (Tables 5, 6). Also noted: species or system yeast; micro tube dilution MIC in YES (± 1.2 M sorbitol), complete growth inhibition by turbidity. The conditions noted are these: 48 h. The procedure: as §1, with “h.” for “h. For inoculation of YEPD or YEPD+S macro test tubes a suspension of tested fungus was produced with 10^5 cfu/ml (cfu - colony forming unit). 10 μl of suspension was used for inoculation of each tube. After 48 h incubation at 30°C the tubes were checked. The MIC value is the lowest concentration of the tested compound that could inhibit the fungal growth and the medium remained clear. From each tube 10 μl culture was plated on YEPD agar medium to check the contamination. The MIC tests were carried out in three parallels.”

Test [7] relates to Candida albicans C. a.^g (Table 6). Also noted: species or system yeast; micro tube dilution MIC in YES (± 1.2 M sorbitol), complete growth inhibition by turbidity. The conditions noted are these: 48 h. The procedure: as §1, with “h.” for “h. For inoculation of YEPD or YEPD+S macro test tubes a suspension of tested fungus was produced with 10^5 cfu/ml (cfu - colony forming unit). 10 μl of suspension was used for inoculation of each tube. After 48 h incubation at 30°C the tubes were checked. The MIC value is the lowest concentration of the tested compound that could inhibit the fungal growth and the medium remained clear. From each tube 10 μl culture was plated on YEPD agar medium to check the contamination. The MIC tests were carried out in three parallels.”

For test [8], the system named is T1, Saccharomyces cerevisiae S. c.^d (wild-type CVX12-3A). Also noted: species or system yeast; micro tube dilution MIC in YES (± 1.2 M sorbitol), complete growth inhibition by turbidity. The conditions noted are these: 48 h. The procedure:
as §1, with “h.” for “h. For inoculation of YEPD or YEPD+S macro test tubes a suspension of tested fungus was produced with 10^5 cfu/ml (cfu - colony forming unit). 10 μl of suspension was used for inoculation of each tube. After 48 h incubation at 30°C the tubes were checked. The MIC value is the lowest concentration of the tested compound that could inhibit the fungal growth and the medium remained clear. From each tube 10 μl culture was plated on YEPD agar medium to check the contamination. The MIC tests were carried out in three parallels.”

For test [9], the system named is T2, Schizosaccharomyces pombe S. p.^a (wild-type 972 h-). Also noted: species or system yeast; micro tube dilution MIC in YES (± 1.2 M sorbitol), complete growth inhibition by turbidity. The conditions noted are these: 48 h. The procedure:
as §1, with “h.” for “h. For inoculation of YEPD or YEPD+S macro test tubes a suspension of tested fungus was produced with 10^5 cfu/ml (cfu - colony forming unit). 10 μl of suspension was used for inoculation of each tube. After 48 h incubation at 30°C the tubes were checked. The MIC value is the lowest concentration of the tested compound that could inhibit the fungal growth and the medium remained clear. From each tube 10 μl culture was plated on YEPD agar medium to check the contamination. The MIC tests were carried out in three parallels.”

The next test relates to C. albicans wild-type. Also noted: species or system whole yeast cells; micro-culture broth dilution MIC in YES at 30 C, turbidity, complete growth inhibition. The settings on record: Candida albicans, YES medium. The procedure:
as §1, with “h.” for “h. For inoculation of YEPD or YEPD+S macro test tubes a suspension of tested fungus was produced with 10^5 cfu/ml (cfu - colony forming unit). 10 μl of suspension was used for inoculation of each tube. After 48 h incubation at 30°C the tubes were checked. The MIC value is the lowest concentration of the tested compound that could inhibit the fungal growth and the medium remained clear. From each tube 10 μl culture was plated on YEPD agar medium to check the contamination. The MIC tests were carried out in three parallels.”, “experiments. Next, the first generation of isochromanones (1E-16E) was also screened in YES medium (Table 5) and exerted a weaker antifungal potency than in YEPD medium and also than the second family of isochromanones in YES medium (17E-30E) (Table 6). The strains are partly different from the previously mentioned ones (Tables 5, 6) analyzing two wild type C. albicans strains because they behaved similarly in YEPD. It is remarkable that there was no effect against either the C. albicans, the S. cerevisiae, or the S. pombe wild-type strains, except with 30E.” for “experiments.”

The subject of test [10] is T3, S. cerevisiae wild-type CVX12-3A.
T3 construct: CVX12-3A
Also noted: species or system whole yeast cells; micro-culture broth dilution MIC in YES at 30 C, turbidity, complete growth inhibition. The settings on record: Saccharomyces cerevisiae; YES medium. The procedure:
as §1, with “h.” for “h. For inoculation of YEPD or YEPD+S macro test tubes a suspension of tested fungus was produced with 10^5 cfu/ml (cfu - colony forming unit). 10 μl of suspension was used for inoculation of each tube. After 48 h incubation at 30°C the tubes were checked. The MIC value is the lowest concentration of the tested compound that could inhibit the fungal growth and the medium remained clear. From each tube 10 μl culture was plated on YEPD agar medium to check the contamination. The MIC tests were carried out in three parallels.”, “experiments. Next, the first generation of isochromanones (1E-16E) was also screened in YES medium (Table 5) and exerted a weaker antifungal potency than in YEPD medium and also than the second family of isochromanones in YES medium (17E-30E) (Table 6). The strains are partly different from the previously mentioned ones (Tables 5, 6) analyzing two wild type C. albicans strains because they behaved similarly in YEPD. It is remarkable that there was no effect against either the C. albicans, the S. cerevisiae, or the S. pombe wild-type strains, except with 30E.” for “experiments.”

Test [11] has as its system T4, S. pombe wild-type 972 h-.
T4 construct: 972 h-
More on the design: species or system whole yeast cells; micro-culture broth dilution MIC in YES at 30 C, turbidity, complete growth inhibition. The conditions noted are these: Schizosaccharomyces pombe; YES medium. The procedure: as §1, with “h.” for “h. For inoculation of YEPD or YEPD+S macro test tubes a suspension of tested fungus was produced with 10^5 cfu/ml (cfu - colony forming unit). 10 μl of suspension was used for inoculation of each tube. After 48 h incubation at 30°C the tubes were checked. The MIC value is the lowest concentration of the tested compound that could inhibit the fungal growth and the medium remained clear. From each tube 10 μl culture was plated on YEPD agar medium to check the contamination. The MIC tests were carried out in three parallels.”, “experiments. Next, the first generation of isochromanones (1E-16E) was also screened in YES medium (Table 5) and exerted a weaker antifungal potency than in YEPD medium and also than the second family of isochromanones in YES medium (17E-30E) (Table 6). The strains are partly different from the previously mentioned ones (Tables 5, 6) analyzing two wild type C. albicans strains because they behaved similarly in YEPD. It is remarkable that there was no effect against either the C. albicans, the S. cerevisiae, or the S. pombe wild-type strains, except with 30E.” for “experiments.”

For the molecule `C[C@@H]1[C@H](O)[C@@H](C)/C=C/C=C/C=C/C=C/C=C/C=C/C=C/[C@H](O[C@@H]2O[C@H](C)[C@@H](O)[C@H](N)[C@@H]2O)C[C@@H]2O[C@](O)(C[C@@H](O)C[C@@H](O)[C@H](O)CC[C@@H](O)C[C@@H](O)CC(=O)O[C@H]1C)C[C@H](O)[C@H]2C(=O)O` [amphotericin B], the MIC in test [1] was 0.4 µg/mL (≈ 0.433 µM); in test [2] it was 0.8 µg/mL (≈ 0.866 µM); in test [3] it was 0.4 µg/mL (≈ 0.433 µM); in test [4] it was 0.2 µg/mL (≈ 0.216 µM); in test [5], less than 0.1 µg/mL; in test [6] (read-out: MIC) it was 0.8 µg/mL (≈ 0.866 µM). In addition, the MIC in test [7] (read-out: MIC) was 0.4 µg/mL (≈ 0.433 µM); in [8] (read-out: MIC), 0.2 µg/mL (≈ 0.216 µM); in test [9] (read-out: MIC), less than 0.1 µg/mL.
Take `COc1ccc(/C=C2/C(=O)OCc3ccccc32)cc1` [21E]: the MIC (against C. albicans wild-type (C. albicans strain f); in the test on C. albicans wild-type (C. albicans strain g); in test [10]; in test [11]; in test [6] (YES + 1.2 M sorbitol); in [7] (YES + 1.2 M sorbitol)) was more than 200 µg/mL in each case. The MIC in test [8] (YES + 1.2 M sorbitol) and in test [9] (YES + 1.2 M sorbitol) was more than 200 µg/mL in each case.
Turning to `Cc1ccc(/C=C2/C(=O)OCc3ccccc32)cc1` [19E], the MIC (in the test with C. albicans wild-type (C. albicans strain f); in the test with C. albicans wild-type (C. albicans strain g); in test [10]; in test [11]; in [6] (YES + 1.2 M sorbitol); in test [7] (YES + 1.2 M sorbitol)) was more than 200 µg/mL each time. The MIC in test [8] (YES + 1.2 M sorbitol) and in [9] (YES + 1.2 M sorbitol) was more than 200 µg/mL throughout.
For `O=C1OCc2ccccc2/C1=C/c1ccc([N+](=O)[O-])cc1` [17Z], the MIC (in the test with C. albicans wild-type (C. albicans strain f); against C. albicans wild-type (C. albicans strain g); in test [10]; in [11]; in [6] (YES + 1.2 M sorbitol); in [7] (YES + 1.2 M sorbitol)) was more than 200 µg/mL in each case. For the same molecule, the MIC in test [8] (YES + 1.2 M sorbitol) and in test [9] (YES + 1.2 M sorbitol) was more than 200 µg/mL throughout.

The values above are taken from article PMC6689975, “Novel Cell Wall Antifungals Reveal a Special Synergistic Activity in pbr1 Mutants Resistant to the Glucan Synthesis Antifungals Papulacandins and Echinocandins” (Frontiers in Microbiology, 2019).
